Data taken from patent US20250214947A1, “3,4-DIHYDROQUINOXALINE-2-CARBOXIMIDE DERIVATIVE COMPOUND AND PHARMACEUTICAL COMPOSITION COMPRISING SAME FOR PREVENTING OR TREATING CANCER DISEASE” (Cureverse Incorporated, priority 2022, published 2025).
Values belong to the compound of their own block, whether it stands above or below them.

Experiments:
[1] = target: T1, HDAC8 (Homo sapiens, UniProt Q9BY41); experiment: HDAC8 inhibitory activity analysis (in vitro), RFU analysis, HDAC Fluorogenic assay kit; format: biochemical; conditions: 10 μM; compared with TSA or SAHA
T1 construct: purchased BPS bioscience
T1 sequence (Q9BY41 1-377): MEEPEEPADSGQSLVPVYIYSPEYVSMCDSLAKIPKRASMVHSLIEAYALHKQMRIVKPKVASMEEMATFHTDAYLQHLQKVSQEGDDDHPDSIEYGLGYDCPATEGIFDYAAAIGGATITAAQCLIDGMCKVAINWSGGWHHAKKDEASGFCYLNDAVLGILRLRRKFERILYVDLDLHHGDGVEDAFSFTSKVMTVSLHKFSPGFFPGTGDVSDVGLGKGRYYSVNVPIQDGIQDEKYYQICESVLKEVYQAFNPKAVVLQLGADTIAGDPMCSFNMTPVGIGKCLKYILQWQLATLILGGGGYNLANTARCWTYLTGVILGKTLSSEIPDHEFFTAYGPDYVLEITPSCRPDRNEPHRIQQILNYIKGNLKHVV
Procedure: The compound of the Example was diluted to 1 mM (1% DMSO concentration) using DMSO to obtain a final concentration of 10 μM, and prepared by diluting 1/10 with assay buffer. In a 96-well black round-bottom plate, 5 μL of the diluted compound of the Example, 5 μL of the diluted HDAC substrate 2A, 5 μL of BSA (1 mg/mL), 5 µL of the HDAC8 enzyme diluted to an appropriate concentration, and 30 μL of assay buffer were added, and the enzyme reaction was performed at 37° C. for 30 minutes. […] Afterwards, 50 μL of 2×HDAC developer was added to each well. After reacting for 15 minutes at room temperature, the fluorescence values at excitation wavelengths of 350-380 nm and emission wavelengths of 440-460 nm were measured using a microplate reader (Synergy Neo).

[2] = test system: PC-3 prostate cancer cells; experiment: Prostate cancer cell growth inhibition, CCK-8 assay; format: cell-based, human; conditions: various concentrations, FIG. 1
Procedure: PC-3, a human-derived prostate cancer cell line, was cultured with RPMI1640 (10% fetal bovine serum, 1% Penicillin Streptomycin) culture medium at 37° C., 5% CO2 condition. All cells in the experiment were subcultured when they reached a confluency of approximately 80% to 90%, and only cells that had not passed 20 passages were used.
After culturing, 10 L CCK-8 reagent was added and the absorbance was measured after 1 hour. The absorbance was measured at 450 nm using a microplate reader [BMG Labtech (Offenburg, Germany)].

[3] = test system: Liver cancer cells Huh-7; experiment: Liver cancer cell growth inhibition, CellTiter-Glo Luminescent Cell Viability Assay; format: cell-based; conditions: various concentrations; day 1; FIG. 6
Procedure: In addition, an analysis of liver cancer growth inhibitory activity was performed. Liver cancer cells Huh-7 cells were dispensed in a 96-well plate at 1×10^4 cells/ml, and after 20 hours, PCI34051, Example 27, and Example 35 were added at various concentrations, and cultured for 24 and 48 hours at 37° C. in a 5% CO2 atmosphere. After culturing, 100 l CellTiter-Glo Luminescent Cell Viability Assay reagent was added and the luminescence signal was measured after 0.5-1 hour. The luminescence signal was measured using IVIS [PerkinElmer, (Waltham, USA)].

[4] = target: HDAC1 (Homo sapiens, UniProt Q13547); experiment: Selective inhibitory effect, HDAC Fluorogenic assay kit, HDAC1; conditions: read-out: HDAC1 enzyme activity (%)
Chain of HDAC1 (Q13547 whole entry): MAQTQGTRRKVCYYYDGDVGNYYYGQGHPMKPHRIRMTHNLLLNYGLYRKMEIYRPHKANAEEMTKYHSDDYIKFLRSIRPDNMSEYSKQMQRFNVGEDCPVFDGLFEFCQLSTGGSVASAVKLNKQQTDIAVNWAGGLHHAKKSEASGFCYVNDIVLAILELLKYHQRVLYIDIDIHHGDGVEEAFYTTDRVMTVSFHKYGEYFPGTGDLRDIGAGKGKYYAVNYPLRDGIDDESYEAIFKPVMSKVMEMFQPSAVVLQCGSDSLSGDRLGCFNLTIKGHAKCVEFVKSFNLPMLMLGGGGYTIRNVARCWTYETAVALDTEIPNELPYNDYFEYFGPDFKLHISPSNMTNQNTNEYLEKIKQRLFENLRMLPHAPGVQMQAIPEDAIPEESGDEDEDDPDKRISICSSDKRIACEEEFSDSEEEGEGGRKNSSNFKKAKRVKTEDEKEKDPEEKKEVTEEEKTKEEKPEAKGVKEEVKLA
Procedure: (§1) For analysis, HDAC substrate 3 was diluted in buffer to a concentration of 200 μM and used in HDAC 1, 2, 3, 6, and 10 assays, HDAC substrate 2A was diluted in buffer to a concentration of 200 μM and used in HDAC 4, 7, 9, and 11 assays, HDAC substrate 2A was diluted in buffer to a concentration of 20 μM and used in HDAC 8 assays. For the HDAC 11 assay, a dedicated buffer included in the kit was used separately, and the same buffer was used for the remaining assays. The compound of the Example was diluted to 1 mM (1% DMSO concentration) using DMSO to obtain a final concentration of 10 μM, and prepared by diluting 1/10 with assay buffer. In a 96-well black round-bottom plate, 5 μL of the diluted compound of the Example, 5 μL of the diluted HDAC substrate, 5 μL of BSA (1 mg/ml), 5 μL of the HDAC enzyme diluted to the appropriate concentration, and 30 μL of assay buffer were added, and the enzyme reaction was performed at 37° C. for 30 minutes. […] Afterwards, 50 μL of 2×HDAC developer was added to each well. After reacting for 15 minutes at room temperature, the fluorescence values at excitation wavelengths of 350-380 nm and emission wavelengths of 440-460 nm were measured using a microplate reader (Synergy Neo).

[5] = target: HDAC2 (Homo sapiens, UniProt Q92769); experiment: Selective inhibitory effect, HDAC Fluorogenic assay kit, HDAC2; conditions: read-out: HDAC2 enzyme activity (%)
Chain of HDAC2 (Q92769 whole entry): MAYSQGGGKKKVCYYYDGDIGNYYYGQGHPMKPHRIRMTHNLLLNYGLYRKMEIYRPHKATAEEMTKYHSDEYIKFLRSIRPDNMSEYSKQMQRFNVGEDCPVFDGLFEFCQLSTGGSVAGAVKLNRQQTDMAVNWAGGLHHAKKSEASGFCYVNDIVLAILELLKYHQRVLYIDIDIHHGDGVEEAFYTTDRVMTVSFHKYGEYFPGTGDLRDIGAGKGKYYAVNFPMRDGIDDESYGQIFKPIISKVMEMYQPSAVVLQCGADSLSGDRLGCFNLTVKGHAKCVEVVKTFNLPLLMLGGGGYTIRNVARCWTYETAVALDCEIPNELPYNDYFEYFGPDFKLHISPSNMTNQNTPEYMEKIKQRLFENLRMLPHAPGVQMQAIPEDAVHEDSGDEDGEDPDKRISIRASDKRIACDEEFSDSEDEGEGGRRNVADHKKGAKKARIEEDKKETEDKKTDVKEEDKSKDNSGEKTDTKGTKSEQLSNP
Procedure: as §1

[6] = target: T2, HDAC6 (Homo sapiens, UniProt Q9UBN7); experiment: Selective inhibitory effect, HDAC Fluorogenic assay kit, HDAC6; conditions: read-out: HDAC6 enzyme activity (%)
T2 sequence (Q9UBN7 1-1215): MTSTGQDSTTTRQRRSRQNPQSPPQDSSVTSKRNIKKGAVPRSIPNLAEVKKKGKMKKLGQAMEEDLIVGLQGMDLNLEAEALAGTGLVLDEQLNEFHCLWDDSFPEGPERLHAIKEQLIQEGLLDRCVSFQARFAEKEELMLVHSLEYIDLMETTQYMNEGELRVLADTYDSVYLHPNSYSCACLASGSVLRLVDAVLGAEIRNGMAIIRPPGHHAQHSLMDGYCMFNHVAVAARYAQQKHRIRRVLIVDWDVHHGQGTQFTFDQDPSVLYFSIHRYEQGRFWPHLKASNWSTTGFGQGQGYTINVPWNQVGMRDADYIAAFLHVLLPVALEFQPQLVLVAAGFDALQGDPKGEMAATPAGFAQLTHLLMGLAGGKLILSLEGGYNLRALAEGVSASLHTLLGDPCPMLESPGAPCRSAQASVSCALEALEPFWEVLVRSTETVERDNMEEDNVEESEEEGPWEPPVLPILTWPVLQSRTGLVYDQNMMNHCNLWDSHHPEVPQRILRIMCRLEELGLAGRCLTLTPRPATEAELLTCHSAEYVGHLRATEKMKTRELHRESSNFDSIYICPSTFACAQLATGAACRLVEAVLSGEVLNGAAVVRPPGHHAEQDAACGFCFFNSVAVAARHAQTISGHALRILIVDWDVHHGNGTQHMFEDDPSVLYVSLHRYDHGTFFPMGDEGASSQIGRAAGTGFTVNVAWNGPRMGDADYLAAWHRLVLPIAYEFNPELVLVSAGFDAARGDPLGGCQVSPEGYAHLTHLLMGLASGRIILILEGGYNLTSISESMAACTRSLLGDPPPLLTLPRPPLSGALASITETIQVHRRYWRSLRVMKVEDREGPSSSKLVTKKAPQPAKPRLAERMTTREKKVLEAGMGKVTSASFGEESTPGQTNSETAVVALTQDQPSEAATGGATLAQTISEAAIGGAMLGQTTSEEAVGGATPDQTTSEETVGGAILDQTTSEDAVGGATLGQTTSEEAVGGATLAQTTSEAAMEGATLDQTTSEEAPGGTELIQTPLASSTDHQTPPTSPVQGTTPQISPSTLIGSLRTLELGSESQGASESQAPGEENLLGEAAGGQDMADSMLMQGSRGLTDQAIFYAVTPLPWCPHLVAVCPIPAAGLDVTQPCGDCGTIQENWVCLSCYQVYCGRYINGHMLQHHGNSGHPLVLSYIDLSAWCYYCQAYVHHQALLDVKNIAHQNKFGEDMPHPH
Procedure: as §1

[7] = target: T3, HDAC10 (Homo sapiens, UniProt Q969S8); experiment: Selective inhibitory effect, HDAC Fluorogenic assay kit, HDAC10; conditions: read-out: HDAC10 enzyme activity (%)
T3 sequence (Q969S8 1-669): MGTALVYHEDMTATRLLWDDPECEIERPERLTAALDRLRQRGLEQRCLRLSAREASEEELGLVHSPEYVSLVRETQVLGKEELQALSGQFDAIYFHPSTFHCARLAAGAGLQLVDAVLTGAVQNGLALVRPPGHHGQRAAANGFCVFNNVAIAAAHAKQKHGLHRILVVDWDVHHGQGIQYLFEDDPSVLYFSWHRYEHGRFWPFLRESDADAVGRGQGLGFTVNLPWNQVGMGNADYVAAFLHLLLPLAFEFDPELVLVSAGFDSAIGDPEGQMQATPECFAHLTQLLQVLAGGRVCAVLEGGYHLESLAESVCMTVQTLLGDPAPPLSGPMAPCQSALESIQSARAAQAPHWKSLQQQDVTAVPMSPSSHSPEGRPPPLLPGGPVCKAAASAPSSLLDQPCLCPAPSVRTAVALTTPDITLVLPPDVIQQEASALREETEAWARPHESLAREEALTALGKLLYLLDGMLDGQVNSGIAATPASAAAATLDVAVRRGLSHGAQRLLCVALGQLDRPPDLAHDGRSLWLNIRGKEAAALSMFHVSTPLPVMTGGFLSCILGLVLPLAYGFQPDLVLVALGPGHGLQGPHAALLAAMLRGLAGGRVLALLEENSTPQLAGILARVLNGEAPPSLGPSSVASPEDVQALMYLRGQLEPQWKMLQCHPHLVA
Procedure: as §1

Compound: Cc1cc2nc(C(=O)Nc3cc(-c4ccc(Br)cc4)no3)c(=O)n(C[C@H](O)[C@H](O)[C@H](O)CO)c2cc1C [Example 10, N-(3-(4-bromophenyl)isoxazol-5-yl)-6,7-dimethyl-3-oxo-4-((2S,3S,4R)-2,3,4,5-tetrahydroxypentyl)-3,4-dihydroquinoxaline-2-carboxamide]
- inhibitory activity against HDAC8 (in words) [1]: inhibitory activity similar to TSA or SAHA

Compound: Cc1cc2nc(C(=O)NCc3ccc4[nH]cnc4c3)c(=O)n(C[C@H](O)[C@H](O)[C@H](O)CO)c2cc1C [Example 34, N-((1H-benzo[d]imidazol-5-yl)methyl)-6,7-dimethyl-3-oxo-4-((2S,3S,4R)-2,3,4,5-tetrahydroxypentyl)-3,4-dihydroquinoxaline-2-carboxamide]
- inhibitory activity against HDAC8 (in words) [1]: inhibitory activity similar to TSA or SAHA

Compound: Cc1cc2nc(C(=O)Nc3nc4c(F)cccc4[nH]3)c(=O)n(C[C@H](O)[C@H](O)[C@H](O)CO)c2cc1C [Example 35, N-(4-fluoro-1H-benzo[d]imidazol-2-yl)-6,7-dimethyl-3-oxo-4-((2S,3S,4R)-2,3,4,5-tetrahydroxypentyl)-3,4-dihydroquinoxaline-2-carboxamide]
- inhibitory activity against HDAC8 (in words) [1]: inhibitory activity similar to TSA or SAHA
- PC-3 cell viability after 24 hours (in words) ([2]; 24 hours): concentration-dependent inhibition of cancer cell viability
- PC-3 cell viability after 48 hours (in words) ([2]; 48 hours): cell viability was restored
- Huh-7 cell viability (in words) [3]: concentration-dependent inhibition of cancer cell viability

Compound: Cc1cc2nc(C(=O)Nc3ccc(C(=O)NO)cc3)c(=O)n(C[C@H](O)[C@H](O)[C@H](O)CO)c2cc1C [Example 48, N-(4-(hydroxycarbamoyl)phenyl)-6,7-dimethyl-3-oxo-4-((2S,3S,4R)-2,3,4,5-tetrahydroxypentyl)-3,4-dihydroquinoxaline-2-carboxamide]
- inhibitory activity against HDAC8 (in words) [1]: inhibitory activity similar to TSA or SAHA

Compound: Cc1cc2nc(C(=O)NCc3ccc(CC(=O)NO)cc3)c(=O)n(C[C@H](O)[C@H](O)[C@H](O)CO)c2cc1C [Example 49, N-(4-(2-(hydroxyamino)-2-oxoethyl)benzyl)-6,7-dimethyl-3-oxo-4-((2S,3S,4R)-2,3,4,5-tetrahydroxypentyl)-3,4-dihydroquinoxaline-2-carboxamide]
- inhibitory activity against HDAC8 (in words) [1]: inhibitory activity similar to TSA or SAHA

Compound: Cc1cc2nc(C(=O)Nc3cc(C(=O)NO)ccc3C)c(=O)n(C[C@H](O)[C@H](O)[C@H](O)CO)c2cc1C [Example 51, N-(5-(hydroxycarbamoyl)-2-methylphenyl)-6,7-dimethyl-3-oxo-4-((2S,3S,4R)-2,3,4,5-tetrahydroxypentyl)-3,4-dihydroquinoxaline-2-carboxamide]
- inhibitory activity against HDAC8 (in words) [1]: inhibitory activity similar to TSA or SAHA

Compound: COc1ccc(Cn2ccc3ccc(C(=O)NO)cc32)cc1 [PCI-34051, N-hydroxy-1-(4-methoxybenzyl)-1H-indole-6-carboxamide, reference compound]
- Huh-7 cell viability (in words) [3]: concentration-dependent inhibition of cancer cell viability

- remaining activity at 10 µM [4]: 1.22%
- remaining activity at 10 µM [5]: 0.7%
- remaining activity at 10 µM [6]: 1.11%
- remaining activity at 10 µM [7]: 1.21%
Compound: CC(/C=C/C(=O)NO)=C\[C@@H](C)C(=O)c1ccc(N(C)C)cc1 [TSA, Trichostatin A, reference compound]
